How the values were obtained:
[1] = Liver S9 stability and metabolite formation; format: in vitro ADME, rat, dog, monkey and human; conditions: presence and absence of NADPH, cross species
Experimental: (§1) The stability (whole blood, liver S9, SGF, SIF, and PBS buffer) and MDCK-MDR1 monolayer permeability of LB100, LB-100 Carbonate and LB-100 POM were evaluated.
(§2) Samples were analyzed by LC-MS/MS using a SCIEX QTrap 5500 mass spectrometer coupled with an Agilent 1290 HPLC Infinity series, a CTC PAL chilled autosampler, all controlled by Analyst software. After separation on a C18 reverse phase HPLC column (Acquity UPLC HSS T3, 1.8, 2.1×50 mm) using an acetonitrile-water gradient system, peaks were analyzed by mass spectrometry (MS) using […] ionization in MRM mode.
Experimental Procedure: Test agent is incubated in duplicate with liver S9 at 37° C. The reaction contains liver S9 protein in 100 mM potassium phosphate, 2 mM NADPH, 3 mM MgCl2, pH 7.4. A control is run for each test agent omitting NADPH to detect NADPH-free degradation. At indicated times, an aliquot is removed from each experimental and control reaction and mixed with an equal volume of ice-cold Stop Solution (methanol, containing internal standard propranolol). Stopped reactions are incubated for 10 minutes at −20° C. Samples are centrifuged to remove precipitated protein, and supernatants are analyzed by LC/MS/MS to quantitate remaining parent and the formation of metabolites. Data are reported as % remaining by dividing by the time zero concentration value.

[2] = Whole blood stability (half-life) and metabolite formation; format: in vitro ADME, rat, dog, monkey and human; conditions: cross species
Experimental: as §1, §2
Whole Blood Stability: Experimental Conditions Experimental Procedure: The stock solution was first diluted in acetonitrile at a concentration that is 100× of the desired final concentration. It was incubated in duplicate with whole blood at 37° C. At indicated times, an aliquot was removed from each experimental and control reaction and mixed with three volumes of ice-cold Stop Solution (methanol containing propranolol as internal standard). Stopped reactions were incubated at least ten minutes at −20° C. The samples were centrifuged to remove precipitated protein, and the supernatants were analyzed by LC-MS/MS to quantitate the remaining parent and the formation of metabolites.
Data were converted to % remaining by dividing by the time zero concentration value. Data were fit to a first-order decay model to determine half-life.

in vivo = test: in vivo; set-up: species or system SD rats; conditions: rat, in vivo, iv, 1 mg/kg
Experimental: 105 was dissolved in 4% NaHCO3 in saline for IV administration. The detailed procedure of dosing solution preparation was presented in Appendix I.
Thirteen (13) animals were placed on the study. The animals in IV arm were free access to food and water. One extra animal was used for blank liver and plasma generation (5 mL per animal). The resulting blank liver and plasma was then applied to the development of bioanalytical method and sample bioanalysis for the entire study.
The IV injection was conducted via foot dorsal vein. Animals were free access to food and water before dose.
The animal is restrained manually. Approximately 150 μL of blood/time point is collected into sodium heparin tube via cardiac puncture for terminal bleeding (anesthetized under carbon dioxide). Blood sample will be put on ice and centrifuged to obtain plasma sample (2000 g, 5 min under 4° C.) within 10 minutes.
The animal will be euthanized with carbon dioxide inhalation. Open abdominal cavity with scissor to expose internal organs. Hold the carcass in an upright position and allow the organs to fall forward. Cut the connective tissues and remove the organs. Then the organs are rinsed with cold saline, dried on filtrate paper, placed into a screw-top tube and weighed, snap frozen by placing into dry-ice immediately.
Plasma and liver samples were stored at approximately −80° C. until analysis. The backup samples will be discarded after three weeks after in-life completion unless requested. The unused dosing solutions will be discarded within three weeks after completion of the study
Software: The PK parameters were determined by non-compartmental model of non-compartmental analysis tool, Pharsight Phoenix WinNonlin® 6.2 software.
Concentration data within 80%-120% of LLOQ was considered within normal instrumental variation and presented in the results. Terminal t1/2 calculation: Time points were automatic selected by “best fit” model for terminal half life estimation as the first option. Manual selection was applied when “best fit” could not well define the terminal phase.

| SMILES | metabolites observed in liver S9 stability study [1] | metabolite formation in whole blood half-life study [2] | AUC(0-last) in liver (in vivo) [ng·h/g] | AUC(0-∞) in liver (in vivo) [ng·h/g] |
| --- | --- | --- | --- | --- |
| COC(=O)C1C2CCC(O2)C1C(=O)N1CCN(C)CC1 (stereo not shown) [Compound 151] | No metabolites were observed | No metabolites were detected | – | – |
| O=C(O)C1C2CCC(O2)C1C(=O)O (stereo not shown) [Endothal, 7-oxabicyclo[2.2.1]heptane-2,3-dicarboxylic acid] | – | – | 3152 | 4896 |

— patent US11236102B2, “Oxabicycloheptane prodrugs” (Lixte Biotechnology, Inc., priority 2015, dated 2022)
